Experimental data: patent US20260014134A1, “COMPOSITION FOR TOPICAL DERMATOLOGICAL DELIVERY” (Limeway Pharma Design Limited, priority 2020, published 2026)
Several values for one entry are separate records, joined by “and”; a condition that tells them apart may be missing. Identical values can stand only once. Like-named read-outs stand apart in the source and are kept apart here.

Legend:
melasma = details: oral, over 12 weeks; cited from earlier work
[1] = tested on: acute radiation dermatitis; details: topical cream; cited from earlier work
[2] = Saturated solubility of corticosteroids in liquid silicones; format: physicochemical; details: including caprylyl methicone
[3] = tested on: patients with mild-moderate psoriasis; details: end of 12 weeks; cited from earlier work
[4] = tested on: melanosome transfer from melanocytes to keratinocytes; details: cited from earlier work
[5] = oral dosage; cited from earlier work
actinic keratoses = details: high oral dose, placebo-controlled; cited from earlier work
[6] = tested on: AKs in transplant recipients; details: cited from earlier work
IL-6 = details: NAM at 500 μm, the only dose studied; cited from earlier work
[7] = tested on: IL-1 beta, IL-6, IL-8 and TNF alpha; details: endotoxin-induced model; cited from earlier work
PARP-1 [8] = molecular target: T1, PARP-1 (Homo sapiens, UniProt P09874); assay: PARP-1 inhibition in vitro (Park J, 2010); format: biochemical
[9] = tested on: women with symmetrical pigmentation; details: 5% and 2% NAM moisturizer; cited from earlier work
PARP-1 [10] = molecular target: T1, PARP-1; details: NAM 50 μM; cited from earlier work
[11] = tested on: non-melanoma human skin cancers; details: cited from earlier work
IL-8 = details: keratinocytes; cited from earlier work
[12] = cited from earlier work
bullous pemphigoid = details: oral 2 g/day with -cycline antibiotics; cited from earlier work
human keratinocytes = details: cited from earlier work
human SC = details: 5% PHA in propylene glycol/myrystyl alcohol co-enhancer non-silicone cream; up to; cited from earlier work
[13] = cited from earlier work; remark: listed apart in the source
murine flank skin = details: 10% PHA applied to murine flank skin; cited from earlier work
[14] = Solubility of diffusion coefficient enhancers in propylene glycol and caprylyl methicone; format: physicochemical; details: 23-25° C.
From the text: As described previously, diffusion coefficient-enhancing excipients (DC enhancers) commonly comprise alcohol, acid or ester derivatives of C8-C22 hydrocarbons.
Conversely, lower carbon chain length acids and alcohols such as C8 and C10 alcohols and C8 and C10 acids may be considered to be far too soluble in hydrocarbyl methyl siloxanes including caprylyl methicone, such that their performance as diffusion coefficient-enhancing excipients would be adversely affected. Similarly, medium chain (for instance C14-C16) isopropyl esters are far too soluble in hydrocarbyl methyl siloxanes such as caprylyl methicone to allow performance as DC enhancers. For both of these classes of DC enhancer, up to 50% DC enhancer would be required to be at or near saturation in the non-volatile residual phase. In contrast, the C12-C14 acids and C14 alcohol have appropriate solubility in caprylyl methicone.
As an example of the outline design of a simple co-enhancer system comprising propylene glycol, and, for example, a C14 alcohol diffusion coefficient enhancer with caprylyl methicone, we might first consider that the concentration of propylene glycol and caprylyl methicone in the final composition (otherwise consisting of non-solvents) to be 25% of each. On this basis, the total amount of C14 alcohol to saturate both of these phases would be 2.44%/4+2.30%/4=1.185%, approximately 1.2%. […]

T1 sequence (P09874 whole entry, species assumed): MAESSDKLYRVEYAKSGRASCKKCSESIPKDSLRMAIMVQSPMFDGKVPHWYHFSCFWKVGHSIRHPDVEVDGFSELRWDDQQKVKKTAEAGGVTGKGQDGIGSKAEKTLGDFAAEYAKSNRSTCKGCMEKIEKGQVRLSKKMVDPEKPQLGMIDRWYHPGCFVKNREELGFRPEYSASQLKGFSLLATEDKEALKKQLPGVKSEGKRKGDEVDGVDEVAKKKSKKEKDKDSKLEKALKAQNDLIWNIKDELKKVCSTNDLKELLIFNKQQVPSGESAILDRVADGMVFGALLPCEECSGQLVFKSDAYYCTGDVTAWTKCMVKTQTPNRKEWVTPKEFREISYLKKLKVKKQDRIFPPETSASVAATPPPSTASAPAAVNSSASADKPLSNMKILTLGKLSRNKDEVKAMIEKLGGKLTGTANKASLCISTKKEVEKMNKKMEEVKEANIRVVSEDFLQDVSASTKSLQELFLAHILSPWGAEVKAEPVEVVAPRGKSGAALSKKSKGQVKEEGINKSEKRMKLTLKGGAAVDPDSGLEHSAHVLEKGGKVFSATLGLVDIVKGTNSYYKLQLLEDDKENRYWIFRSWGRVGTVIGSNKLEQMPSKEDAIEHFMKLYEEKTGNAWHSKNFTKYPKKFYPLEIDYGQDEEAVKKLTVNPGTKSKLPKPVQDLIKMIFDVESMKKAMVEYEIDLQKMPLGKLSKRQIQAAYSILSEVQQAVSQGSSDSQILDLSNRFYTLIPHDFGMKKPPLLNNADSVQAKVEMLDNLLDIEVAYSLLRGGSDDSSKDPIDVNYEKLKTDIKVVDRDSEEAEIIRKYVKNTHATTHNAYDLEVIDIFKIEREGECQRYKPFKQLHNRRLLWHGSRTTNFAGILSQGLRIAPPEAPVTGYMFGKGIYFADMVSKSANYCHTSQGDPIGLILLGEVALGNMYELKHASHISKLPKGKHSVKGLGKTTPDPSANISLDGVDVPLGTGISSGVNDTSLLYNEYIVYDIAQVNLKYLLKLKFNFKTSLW

NC[C@H]1CC[C@H](C(=O)O)CC1 [tranexamic acid]
reduction in melasma (mMASI, MASI) scores (melasma): approximately 50%

C[C@@H]1C[C@H]2[C@@H]3CCC4=CC(=O)C=C[C@]4(C)[C@@]3(Cl)[C@@H](O)C[C@]2(C)[C@@]1(OC(=O)c1ccco1)C(=O)CCl [mometasone furoate]
reduction of acute radiation dermatitis versus emollient cream [1]: significantly more effective than emollient cream alone
saturated solubility in a range of liquid silicones [2]: appropriately low

C=C1/C(=C\C=C2/CCC[C@]3(C)[C@@H]([C@H](C)/C=C/[C@@H](O)C4CC4)CC[C@@H]23)C[C@@H](O)C[C@@H]1O [calcipotriol]
reduction of PASI score [3]: 77.8±9.7%

NC(=O)c1cccnc1 [NAM, nicotinamide]
inhibition of melanosome transfer ([4]; 1.0 mmolL^−1 (1 mM) NAM, coculture model): 35-68%
inhibition of melanosome transfer ([4]; NAM 10 μM, after 3 days of treatment): 14%
half-life of decrease of peak concentrations in plasma and skin [5]: approximately 90 minutes
effect on actinic keratoses (actinic keratoses): significantly reduced actinic keratoses
patients with AKs significantly decreased in size ([6]; after six months, 18/19 patients): 88%
patients with complete clinical regression ([6]; seven patients): 42%
reduction in IL-6 compared to untreated control (IL-6): 88%
concentration required for significant effects on proinflammatory cytokines [7]: 2,000 μM
concentration predicted to be required for significant PARP-1 inhibition (PARP-1 [8]): 50 to 100 µM
reduction in hyperpigmented lesions [9]: dose-dependent reduction in hyperpigmented lesions
PARP-1 inhibition (PARP-1 [10]): 66%
peritumoral and tumour infiltrating CD4+ and CD8+ lymphocytes versus placebo ([11]; melanomas arising on treatment): statistically significantly increased
rates of new non-melanoma skin cancers and actinic keratoses ([11]; oral): safe and effective in reducing the rates
concentration required to significantly inhibit P. acnes-induced IL-8 mRNA production (IL-8): 5.0 ug/ml and ~40 μM
pKa [12]: ~3.5 and 3.5
time to total remission of bullous pemphigoid (bullous pemphigoid): 6-8 weeks
ceramide biosynthesis, % of maximum response (human keratinocytes; NAM 1-10 μM): 75%-100%
concentration at maximum of ceramide synthesis dose response (human keratinocytes; in vitro): ~10 µM
increase in biosynthesis of ceramides and other stratum corneum lipids (human keratinocytes; up to): up to 5 fold

O=C(O)[C@H](O)[C@@H](O)[C@H](O[C@@H]1O[C@H](CO)[C@H](O)[C@H](O)[C@H]1O)[C@H](O)CO [lactobionic acid]
decrease in human SC pH in vivo (human SC): up to 1.5 pH units
logP O/W [13]: −4.8
decrease in pH at all SC depths (murine flank skin): 0.5-1.0 pH units

CCC(=O)O[C@]1(C(=O)SCF)[C@H](C)C[C@H]2[C@@H]3C[C@H](F)C4=CC(=O)C=C[C@]4(C)[C@@]3(F)[C@@H](O)C[C@@]21C [fluticasone propionate]
saturated solubility in a range of liquid silicones [2]: appropriately low

O=C1O[C@H](CO)[C@@H](O)[C@H](O)[C@H]1O [gluconolactone]
logP O/W [13]: −4.8

CCCCCCCCCCCCCCO [C14 alcohol, myristyl alcohol]
solubility of C14 alcohol in caprylyl methicone (amount to saturate) ([14]; in caprylyl methicone): 2.30%
solubility of C14 alcohol in propylene glycol (amount to saturate) ([14]; in propylene glycol): 2.44%
logP O/W [13]: > 4.00
